This passage reports LC retention time results from the RepoRT retention time repository (doi:10.1016/j.chroma.2015.11.014).

The data set can be described thus: RP, Agilent ZORBAX Eclipse Plus C18, 150 × 2.1 mm, 3.5 µm, 40 °C, 0.3 mL/min, estimated dead time 1.1 min; A: water + 0.1% formic acid; B: acetonitrile + 0.1% formic acid; gradient (min/%B) 0/2 1/2 2/20 16.5/98 22/98. Conditions: stereoisomer not certain.

Molecules are shown by their SMILES.

`CCC1OC(=O)C(C)C(OC2CC(C)(OC)C(O)C(C)O2)C(C)C(OC2OC(C)CC(N(C)C)C2O)C(C)(O)CC(C)C(=O)C(C)C(O)C1(C)O` (stereo not drawn): the LC retention time was 7.85 min. Consider `CCNc1nc(N)[nH]c(=O)n1`, for which the LC retention time is 2.31 min. As for `CCCCCCCC[N+](CCCCCCCC)(CCCCCCCC)CCCCCCCC`, the figure is 16.2 min; as for `Cc1cc(N)no1`, 4.41 min. As for `Cc1c(N(C)C)c(=O)n(-c2ccccc2)n1C`, the figure is 4.71 min; as for `COCCCOc1cc(CC(CC(N)C(O)CC(C(=O)NCC(C)(C)C(N)=O)C(C)C)C(C)C)ccc1OC` (stereo not drawn), 8.2 min. In the case of `c1ccc(Nc2ccc(Nc3ccccc3)cc2)cc1`, the LC retention time was 14.5 min. As for `CCOC(=O)Nc1ccc(N)cc1`, the figure is 4.86 min; as for `CCCCCCCCCCCCCCCCN1C=CC=CC1`, 13 min; as for `CCOC(=O)C1=C(C)NC(C)=C(C(=O)OC)C1c1cccc([N+](=O)[O-])c1` (stereo not drawn), 12.4 min.

Take `CNCCC(Oc1cccc2ccccc12)c1cccs1` (stereo not drawn): the LC retention time was 8.43 min. The value for `NC12CC3CC(CC(C3)C1)C2` was 5.15 min.

For `CCC(CCC(C)O)COC(=O)C(C#N)=C(c1ccccc1)c1ccccc1` (stereo not drawn), the LC retention time is 13.8 min.

As to `CN1CC(=O)N2C(Cc3c([nH]c4ccccc34)C2c2ccc3c(c2)OCO3)C1=O` (stereo not drawn), the LC retention time is 9.8 min. On to `CC(C(=O)O)c1ccc2cc(O)ccc2c1` (stereo not drawn), for which the LC retention time was 8.5 min. As for `CCCCCCCCCCCCCCCC(=O)OCC(COP(=O)([O-])OCC[N+](C)(C)C)OC(=O)CCCC(=O)O` (stereo not drawn), the figure is 15.2 min; as for `CC12CCC3c4ccc(OCc5ccccc5)cc4CCC3C1CC(O)C2O` (stereo not drawn), 13.3 min. The value for `CCCCCCCCCCCCCCCC[N+](C)(C)Cc1ccccc1` was 13.9 min. Take `CCCCN1C=CC=CC1`: the LC retention time was 4.24 min. Regarding `COCCOCCOCCOCCOC`, the LC retention time is 6.01 min. As to `CC(C)(c1ccc(OCC(O)CO)cc1)c1ccc(OCC(O)CO)cc1` (stereo not drawn), the LC retention time was 8.23 min.

Turning to `COC(=O)Nc1nc2ccc(Sc3ccccc3)cc2[nH]1`, the LC retention time was 9.95 min. As for `COP(=O)(NC(C)=O)SC` (stereo not drawn), the figure is 4.5 min.

Take `NC(=O)N1c2ccccc2CCc2ccccc21`: the LC retention time was 9.23 min. The value for `CN(C)c1ccc(C=O)cc1` was 8.87 min. For the molecule `C=C(OCC)[P+](c1ccccc1)(c1ccccc1)c1ccccc1`, the LC retention time is 9.3 min.

`O=C(CCc1ccc(O)cc1)c1c(O)cc(O)cc1O`: the LC retention time was 8.77 min. The value for `CC(=O)C1CCC2C3CCC4=CC(=O)CCC4(C)C3CCC12C` (stereo not drawn) was 13.8 min; that for `Nc1ncnc2c1ncn2C1CC(O)C(CO)O1` (stereo not drawn) was 3.4 min; that for `NC(=O)c1ccc[n+](C2OC(COP(=O)(O)OP(=O)([O-])OCC3OC(n4cnc5c(N)ncnc54)C(O)C3O)C(O)C2O)c1` (stereo not drawn) was 2.09 min. The value for `CC(=O)C1(O)CCC2C3CC(C)C4=CC(=O)CCC4(C)C3CCC21C` (stereo not drawn) was 12.5 min; that for `O=P(O)(OCc1ccccc1)OCc1ccccc1` was 9.05 min. The value for `CCCCCCCCCCCCOC(=O)c1cc(O)c(O)c(O)c1` was 16 min; that for `C#CCC1=C(C)C(OC(=O)C2C(C=C(C)C)C2(C)C)CC1=O` (stereo not drawn) was 14.9 min; that for `COc1ccc(CCN(C)CCCC(C#N)(c2ccc(OC)c(OC)c2)C(C)C)cc1OC` (stereo not drawn) was 8.54 min.

In the case of `CC12CC3CC(C)(C1)CC(N)(C3)C2`, the LC retention time was 6.65 min. For the molecule `COC(=O)c1ccc(CNS(C)(=O)=O)cc1S(=O)(=O)NC(=O)Nc1nc(OC)cc(OC)n1`, the LC retention time is 10 min. The value for `CN(C)c1ccc(-c2nc3ccccc3[nH]2)cc1` was 6.52 min; that for `CC(=O)Nc1cc(NC(C)=O)cc(C(=O)O)c1` was 5.22 min. For the molecule `C[N+](C)([O-])CCOC(c1ccccc1)c1ccccc1`, the LC retention time is 8.07 min. With `CCCOc1ccc2nc(NC(=O)OC)[nH]c2c1`, the LC retention time is 6.66 min. Take `COC(=O)Nc1cccc(N)c1C`: the LC retention time was 4.42 min.

Take `CNCc1ccc(CSCCNC(=C[N+](=O)[O-])NC)o1`: the LC retention time was 4.77 min. The value for `CC(C)c1ccc(OP(=O)(Oc2ccc(C(C)C)cc2)Oc2ccc(C(C)C)cc2)cc1` was 18.9 min; that for `CCC(CC)OC1C=C(C(=O)O)CC(N)C1NC(C)=O` (stereo not drawn) was 5.65 min; that for `NCCc1c[nH]c2ccccc12` was 4.97 min. For the molecule `CCN(CC)C(=O)C(C)Oc1cccc2ccccc12` (stereo not drawn), the LC retention time was 12.6 min. Consider `c1ncc2[nH]cnc2n1`, for which the LC retention time was 2.57 min. As for `CCC(CC)Nc1c([N+](=O)[O-])cc(C)c(C)c1[N+](=O)[O-]`, the figure is 16.2 min. As for `CCCCCCCCCCCC[N+](C)(C)C`, the figure is 10 min.

As for `NC(=O)c1ccccc1`, the LC retention time was 5.64 min. Consider `CC(C)NCC(O)COc1ccc(CCOCC2CC2)cc1` (stereo not drawn), for which the LC retention time was 7.06 min. The value for `CNNCc1ccc(C(=O)NC(C)C)cc1` was 4.91 min. On to `COC(=O)C1=C(C)NC(C)=C(C(=O)OC)C1c1ccccc1[N+](=O)[O-]`, for which the LC retention time is 10.9 min. In the case of `CC(C)c1ccccc1OP(=O)(Oc1ccccc1)Oc1ccccc1`, the LC retention time was 15.8 min. The value for `CCOc1ccc2ccccc2c1C(=O)NC1C(=O)N2C1SC(C)(C)C2C(=O)O` (stereo not drawn) was 10.6 min; that for `Cc1cc2n[nH]nc2cc1C` was 8.01 min; that for `COc1cc(O)c(C(=O)c2ccccc2)cc1S(=O)(=O)O` was 7.48 min.

For the molecule `CCOc1nc2cccc(C(=O)O)c2n1Cc1ccc(-c2ccccc2-c2nn[nH]n2)cc1`, the LC retention time was 10 min.

Take `Nc1ncnc2c1ncn2C1OC(CO)C(O)C1O` (stereo not drawn): the LC retention time is 3.2 min. As for `CC(=O)CCCCn1c(=O)c2c(ncn2C)n(C)c1=O`, the LC retention time was 6.77 min. As for `O=C(C1CCCCC1)N1CC(=O)N2CCc3ccccc3C2C1` (stereo not drawn), the LC retention time is 10.8 min.

With `CCCCCCCCCCCCCC(=O)OCC(O)COP(=O)([O-])OCC[N+](C)(C)C` (stereo not drawn), the LC retention time was 12.7 min. As for `C=C(C)C([O-])=NCCC[N+](C)(C)C`, the figure is 4.7 min; as for `CCCCCC[N+](CCCCCC)(CCCCCC)CCCCCC`, 13.1 min. As for `CC(C)Cc1ccc(C(C)C(=O)O)cc1` (stereo not drawn), the figure is 12.8 min; as for `COC(=O)C(Cc1ccccc1)NC(=O)C(N)CC(=O)O` (stereo not drawn), 5.76 min; as for `O=c1[nH]c(=O)c2[nH]cnc2[nH]1`, 2.43 min.

As to `CCN(CC)C(=O)c1cccc(CO)c1`, the LC retention time is 6.97 min. As for `CCOC(=O)C[P+](c1ccccc1)(c1ccccc1)c1ccccc1`, the figure is 8 min; as for `CCOP(=S)(OCC)Oc1ccc([N+](=O)[O-])cc1`, 14.1 min.

As for `CCc1cccc(C)c1N(C(=O)CS(=O)(=O)O)C(C)COC` (stereo not drawn), the LC retention time was 8.25 min. As for `CCOC(=O)C(C)[P+](c1ccccc1)(c1ccccc1)c1ccccc1` (stereo not drawn), the figure is 8.09 min. As for `CN1CCCC1=O`, the figure is 4.39 min; as for `NC(Cc1ccc(Oc2ccc(O)cc2)cc1)C(=O)O` (stereo not drawn), 5.62 min; as for `CCCCCCCCCCCCCCCCCC[N+](C)(C)C`, 14 min. On to `COc1ccc2c3c1OC1C(=O)C=CC4(O)C(C2)N(C)CCC314` (stereo not drawn), for which the LC retention time was 5.37 min. The value for `Nc1nc2c(ncn2COCC(=O)O)c(=O)[nH]1` was 2.92 min. As for `O=c1[nH]c2c(c(=O)n1C1CCCCC1)CCC2`, the figure is 9.02 min. As for `CCCCCCCCCCCCCC[N+](C)(C)C`, the LC retention time is 11.5 min. `CC(C)c1ccc(NC(=O)N(C)C)cc1`: the LC retention time was 10.3 min. As to `CC(=O)OCCCC[P+](c1ccccc1)(c1ccccc1)c1ccccc1`, the LC retention time is 8.85 min. As for `CCCCCCCCCCCC[N+](C)(C)CCCCCCCCCCCC`, the figure is 15.3 min.

On to `O=[P+](c1ccccc1)c1ccccc1`, for which the LC retention time is 8.03 min. Turning to `NC(=O)N1c2ccccc2C=Cc2cc(O)ccc21`, the LC retention time was 7.48 min. The value for `CN(C)CCOC(c1ccccc1)c1ccccc1` was 7.72 min. For the molecule `CCCCCCCCCCCCCCCC(=O)OCC(O)COP(=O)([O-])OCC[N+](C)(C)C` (stereo not drawn), the LC retention time is 14.9 min.

In the case of `CCNc1nc(NC(C)C)nc(SC)n1`, the LC retention time is 8.65 min. For the molecule `CC(C)(C(=O)O)c1ccc(C(=O)CCCN2CCC(OC(c3ccccc3)c3ccccc3)CC2)cc1`, the LC retention time is 10 min. As for `CNC(=O)C(=NOC)c1ccccc1COc1cc(C)ccc1C`, the figure is 13.2 min; as for `O=c1[nH]c(=S)c2[nH]cnc2[nH]1`, 4.02 min. `c1ccc(C2=NCCN2)cc1`: the LC retention time was 4.35 min.

Consider `CCN1CCCC1CNC(=O)c1cc(S(=O)(=O)CC)c(N)cc1OC` (stereo not drawn), for which the LC retention time was 5.57 min. As for `Cc1nnc(-c2ccccc2)c(=O)[nH]1`, the figure is 6.12 min; as for `COC1C(OC(C)=O)CC(=O)OC(C)CC=CC=CC(O)C(C)CC(CC=O)C1OC1OC(C)C(OC2CC(C)(O)C(OC(=O)CC(C)C)C(C)O2)C(N(C)C)C1O` (stereo not drawn), 8.87 min. The value for `CCc1cccc(C)c1N(C(=O)C(=O)O)C(C)COC` (stereo not drawn) was 9.91 min; that for `Nc1ncnc2c1ncn2C1CC(O)C(COP(=O)(O)O)O1` (stereo not drawn) was 2.17 min. The value for `CCC(C)(C)C(=O)OC1CC(CO)C=C2C=CC(C)C(CCC3CC(O)CC(=O)O3)C21` (stereo not drawn) was 10.8 min.
